Consider 19 compounds from ChEMBL document CHEMBL1759869, “Discovery of spirocyclic sulfonamides as potent Akt inhibitors with exquisite selectivity against PKA” (Bioorg Med Chem Lett, 2011).

Molecules are shown by their SMILES.

The target of experiment [1] is T1, RAC-alpha serine/threonine-protein kinase (Homo sapiens, UniProt P31749). In words: Inhibition of AKT1-mediated PRAS40 phosphorylation in human LNCaP cells. The format is cell-based.
For experiment [2], the target named is T1, RAC-alpha serine/threonine-protein kinase. In words: Inhibition of Akt1.
The nature of experiment [3]: Inhibition of PKA.
Experiment [4] is described as follows: Selectivity ratio of IC50 for PKA to IC50 for Akt1.

T1 sequence (P31749 whole entry): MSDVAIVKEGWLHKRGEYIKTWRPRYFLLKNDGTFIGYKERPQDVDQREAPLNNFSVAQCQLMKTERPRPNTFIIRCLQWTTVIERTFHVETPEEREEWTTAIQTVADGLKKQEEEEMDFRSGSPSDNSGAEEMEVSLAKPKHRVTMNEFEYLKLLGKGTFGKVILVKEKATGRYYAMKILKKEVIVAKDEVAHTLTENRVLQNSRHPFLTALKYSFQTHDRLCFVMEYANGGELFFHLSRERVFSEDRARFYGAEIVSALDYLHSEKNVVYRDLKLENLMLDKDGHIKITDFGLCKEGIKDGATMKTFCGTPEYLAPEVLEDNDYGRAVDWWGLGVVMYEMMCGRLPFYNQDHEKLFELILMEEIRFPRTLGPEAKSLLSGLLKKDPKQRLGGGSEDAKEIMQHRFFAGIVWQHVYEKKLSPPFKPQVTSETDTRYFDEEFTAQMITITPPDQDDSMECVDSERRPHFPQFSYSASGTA

`CCOCCN(C[C@@H](O)CN1CCCC2(CCN(c3ncnc(N)c3C3CC3)C2)C1)S(=O)(=O)c1c(C)cccc1C` (mixture of isomers): the values for the IC50 in experiment [1], in experiment [2] and in experiment [3] were 470 nM, 12 nM and 2200 nM, respectively. The Ratio IC50 in experiment [4] turned out to be 180.
As to `Nc1ncnc(N2CC[C@@]3(CCCN(C[C@H](O)CNS(=O)(=O)c4ccccc4Br)C3)C2)c1C1CC1`, the results for the IC50 in experiment [1], in experiment [2] and in experiment [3] were 2000 nM, 17 nM and 9400 nM, respectively. For the same compound, the Ratio IC50 in experiment [4] stood at 550.
For `CCOCCN(C[C@@H](O)CN1CCCC2(CCN(c3ncnc4n[nH]c(C)c34)C2)C1)S(=O)(=O)c1c(C)cccc1C` (some centres undefined), the IC50 came to 310 nM in experiment [1] and 21 nM in experiment [2].
In the case of `Nc1ncnc(N2CC[C@@]3(CCCN(C[C@H](O)CNS(=O)(=O)c4ccccc4F)C3)C2)c1C1CC1`, the values for the IC50 in experiment [1], in experiment [2] and in experiment [3] were 14000 nM, 81 nM and greater than 10000 nM, respectively. Further, the Ratio IC50 in experiment [4] is greater than 120.
The matching figures for `Cc1ccc(S(=O)(=O)NC[C@@H](O)CN2CCC[C@@]3(CCN(c4ncnc(N)c4C4CC4)C3)C2)c(C)c1`: 18000 nM, 160 nM, greater than 10000 nM and greater than 63.
Regarding `Cc1ccncc1S(=O)(=O)NC[C@@H](O)CN1CCC[C@@]2(CCN(c3ncnc(N)c3C3CC3)C2)C1`, the IC50 is 1100 nM in experiment [2] and greater than 10000 nM in experiment [3]. For the same compound, the Ratio IC50 in experiment [4] was greater than 9.
As to `Cc1cc(F)ccc1S(=O)(=O)NC[C@@H](O)CN1CCC[C@@]2(CCN(c3ncnc(N)c3C3CC3)C2)C1`, the IC50 in experiment [1] stood at 2200 nM; in experiment [2], 8 nM; in experiment [3], 7800 nM. Moreover, in experiment [4], the Ratio IC50 stood at 970.
The matching figures for `Nc1ncnc(N2CC[C@@]3(CCCN(C[C@H](O)CNS(=O)(=O)c4ccccc4Cl)C3)C2)c1C1CC1`: 1900 nM, 9 nM, 8300 nM and 920.
The matching figures for `CCOCCN(C[C@@H](O)CN1CCCC2(CCN(c3ncnc4[nH]cc(C)c34)CC2)C1)S(=O)(=O)c1c(C)cccc1C`: 1200 nM, 41 nM, 210 nM and 5.
The matching figures for `Cc1noc(C)c1S(=O)(=O)NC[C@@H](O)CN1CCC[C@@]2(CCN(c3ncnc(N)c3C3CC3)C2)C1`: 490 nM, 3 nM, 1900 nM and 630.
As to `Cc1cccc(C)c1S(=O)(=O)NC[C@@H](O)CN1CCC[C@@]2(CCN(c3ncnc(N)c3C3CC3)C2)C1`, the 50% inhibitory concentration (IC50) is 900 nM in experiment [1], 4 nM in experiment [2] and 3400 nM in experiment [3]. Moreover, the Ratio IC50 in experiment [4] was 850.
The matching figures for `Cc1ccccc1S(=O)(=O)NC[C@@H](O)CN1CCC[C@@]2(CCN(c3ncnc(N)c3C3CC3)C2)C1`: 1200 nM, 9 nM, 5000 nM and 560.
The matching figures for `Cc1cccc(C)c1S(=O)(=O)N1CCC[C@@H]1[C@@H](O)CN1CCC[C@@]2(CCN(c3ncnc(N)c3C3CC3)C2)C1`: 2400 nM, 19 nM, 4700 nM and 250.
For the compound `Cc1cccc(C)c1S(=O)(=O)N1CCC[C@H]1[C@@H](O)CN1CCC[C@@]2(CCN(c3ncnc(N)c3C3CC3)C2)C1`, the IC50 in experiment [1] came out at 690 nM; in experiment [2], 9 nM; in experiment [3], 3900 nM. In addition, the Ratio IC50 in experiment [4] stood at 430.
Turning to `CCOCCN(C[C@@H](O)CN1CCCC2(CCN(c3ncnc4ccccc34)C2)C1)S(=O)(=O)c1c(C)cccc1C` (some centres undefined), the IC50 amounted to 2400 nM in experiment [1] and 4700 nM in experiment [3].
As for `CCOCCN(C[C@@H](O)CN1CCCC2(CCN(c3ncncc3C3CC3)C2)C1)S(=O)(=O)c1c(C)cccc1C` (some centres undefined), the concentration for half-maximal inhibition (IC50) came out at 740 nM in experiment [1], 12 nM in experiment [2] and 3400 nM in experiment [3]. Moreover, in experiment [4], the Ratio IC50 stood at 280.
Regarding `Cc1cccc(C)c1S(=O)(=O)N1CCC[C@H]1[C@H](O)CN1CCC[C@@]2(CCN(c3ncnc(N)c3C3CC3)C2)C1`, the values for the concentration for half-maximal inhibition (IC50) in experiment [1], in experiment [2] and in experiment [3] were 13000 nM, 250 nM and greater than 10000 nM, respectively. For the same compound, the Ratio IC50 in experiment [4] was greater than 40.
The matching figures for `CCOCCN(C[C@@H](O)CN1CCCC2(CCN(c3ncnc4[nH]cc(C)c34)C2)C1)S(=O)(=O)c1c(C)cccc1C` (some centres undefined): 180 nM, 2 nM, 67 nM and 28.
`CCOCCN(C[C@@H](O)CN1CCCC2(CCN(c3ncnc4[nH]nc(C)c34)C2)C1)S(=O)(=O)c1c(C)cccc1C` (some centres undefined) gave an IC50 in experiment [3] of 560 nM. Besides, in experiment [4], the Ratio IC50 stood at 27.
